The values that follow come from patent US20110039879A1, “METHODS FOR INCREASING WHITE BLOOD CELLS” (FibroGen ,Inc., priority 2007, published 2011).

What all share (assay type): in vivo, Swiss-Webster mice
One test deals with lymphocytes. Briefly: Lymphocytes by complete blood count on day 8, dosing day 1, 3, 5. The conditions noted are these: mice, oral gavage, measured on day 8. The procedure, abridged: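 Male Swiss-Webster mice received the compounds by oral gavage through a ball-tipped gavage needle on days 1, 3 and 5. On day 8, 200 μl blood samples were drawn and lymphocyte counts were obtained by complete blood count on a CellDyn cell analyzer (Abbott Laboratories). The change was expressed as percent increase relative to control animals.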

For test [1], the system named is total white blood cell (WBC). Description: Total white blood cells by complete blood count on day 8, dosing day 1, 3, 5. The conditions noted are these: mice, oral gavage, measured on day 8.
The next test deals with monocytes. Description: Monocytes by complete blood count on day 8, dosing day 1, 3, 5. To be noted: mice, oral gavage, measured on day 8.
Test [2] concerns neutrophils. Briefly: Neutrophils by complete blood count on day 8, dosing day 1, 3, 5. The conditions noted are these: Mus musculus, Neutrophil, 192 h, mice, oral gavage, measured on day 8, read-out: Neutrophils % Increase Over Control; for change in vivo at 100 mg/kg: 100 mg/kg on day 1, day 3 and day 5; for change in vivo at 200 mg/kg: 200 mg/kg on day 1, day 3 and day 5. The method, then: To examine the effect of compounds and methods of the present invention on increasing white blood cells, the following studies were performed. In one series of experiments, male Swiss-Webster mice were administered various compounds of the present invention via oral gavage using a ball-tipped gavage needle. […] Animals were dosed once daily for 3 or 4 days. Six hours after the final dosing, 200 μl blood samples were collected and total white blood cell, neutrophil, and lymphocyte levels were measured by complete blood count (CBC) using a CellDyn cell analyzer (Abbott Laboratories).
In another series of experiments, male Swiss-Webster mice were administered various compounds (see Table 7 and Table 8) of the present invention via oral gavage using a ball-tipped gavage needle. […] Total WBC, neutrophil, lymphocyte, and monocyte levels were measured in mice as described above on day 8 following administration of compound on day 1, day 3, and day 5.

Test [3] deals with neutrophils. The test is described as above. The conditions noted are these: mice, oral gavage, measured on day 8.
Test [4] deals with total white blood cell (WBC). Description: Total white blood cells by complete blood count on day 8, dosing day 1, 3, 5. To be noted: Mus musculus, 192 h, mice, oral gavage, measured on day 8, read-out: Total WBC % Increase Over Control; for change in vivo at 100 mg/kg: 100 mg/kg on day 1, day 3 and day 5; for change in vivo at 200 mg/kg: 200 mg/kg on day 1, day 3 and day 5. Put shortly: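 Male Swiss-Webster mice received test compound by oral gavage with a ball-tipped gavage needle on day 1, day 3 and day 5. On day 8, 200 μl of blood was collected and total white blood cell levels were determined by complete blood count on a CellDyn cell analyzer (Abbott Laboratories), expressed as percent change relative to control.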

Setting [5] is: Mus musculus, Lymphocyte, 192 h, 100 mg/kg on day 1, day 3 and day 5, read-out: Lymphocytes % Increase Over Control.
Setting [6] is: 100 mg/kg on day 1, day 3 and day 5.
Where [7] appears, read: Mus musculus, Lymphocyte, 192 h, 200 mg/kg on day 1, day 3 and day 5, read-out: Lymphocytes % Increase Over Control.
[8] abbreviates: 200 mg/kg on day 1, day 3 and day 5.
Setting [9] is: Mus musculus, Monocyte, 192 h, 200 mg/kg on day 1, day 3 and day 5, read-out: Monocytes % Increase Over Control.
Where [10] appears, read: Mus musculus, Monocyte, 192 h, 100 mg/kg on day 1, day 3 and day 5, read-out: Monocytes % Increase Over Control.
The mark [11] stands for this setting: 60 mg/kg on day 1, day 3 and day 5.

`N#Cc1nc(C(=O)NCC(=O)O)c(O)c2c(Cl)cn(Cc3ccccc3)c12` [Compound F, [(1-Benzyl-3-chloro-7-cyano-4-hydroxy-1H-pyrrolo[2,3-c]pyridine-5-carbonyl)-amino]-acetic acid]: the figures for the change in vivo at 100 mg/kg (in the test on lymphocytes (setting [5]); in the test on neutrophils [2]; in test [4]) were 86%, 23% and 81%, respectively. The Lymphocytes in the test on lymphocytes (setting [6]) is given as 11.6 10^3 cells/μl. The “Total WBC” value in test [1] (setting [6]) is 12.6 10^3 cells/μl. Further, the Monocytes with monocytes (setting [6]) is listed as 0.1 10^3 cells/μl. Also, the Neutrophils in the test on neutrophils [3] (setting [6]) was 0.7 10^3 cells/μl.
With `N#Cc1nc(C(=O)NCC(=O)O)c(O)c2c(Oc3ccc(F)cc3)cccc12` [Compound G, {[1-Cyano-5-(4-fluoro-phenoxy)-4-hydroxy-isoquinoline-3-carbonyl]-amino}-acetic acid], the change in vivo at 200 mg/kg in the test on lymphocytes (setting [7]) worked out at 148%; with monocytes (setting [9]), 317%; in the test on neutrophils [2], 48%; in test [4], 138%. In addition, in the test on lymphocytes (setting [8]), the Lymphocytes is given as 13.2 10^3 cells/μl. For the same compound, the “Total WBC” value in test [1] (setting [8]) was 14.3 10^3 cells/μl. Also, in the test on monocytes (setting [8]), the Monocytes was 0.2 10^3 cells/μl. Moreover, the Neutrophils in the test on neutrophils [3] (setting [8]) is given as 0.8 10^3 cells/μl.
Regarding `CC(C)Oc1ccc2c(O)c(C(=O)NCC(=O)O)nc(C#N)c2c1` [Compound H, [(1-Cyano-4-hydroxy-7-isopropoxy-isoquinoline-3-carbonyl)-amino]-acetic acid], the change in vivo at 100 mg/kg turned out to be 120% in the test on lymphocytes (setting [5]), 135% in the test with neutrophils [2] and 120% in test [4]. In addition, the change in vivo at 200 mg/kg in the test with lymphocytes (setting [7]) was determined as 963%; in the test with neutrophils [2] it was 6%; in test [4], 783%. Also, the Lymphocytes is 7.7 10^3 cells/μl with lymphocytes (setting [6]) and 37.0 10^3 cells/μl with lymphocytes (setting [8]). Besides, the results for the “Total WBC” value in test [1] (setting [6]) and in test [1] (setting [8]) were 9.4 10^3 cells/μl and 37.8 10^3 cells/μl, respectively. Also, the Monocytes with monocytes (setting [6]) and in the test with monocytes (setting [8]) was 0.1 10^3 cells/μl throughout. Besides, the results for the Neutrophils with neutrophils [3] (setting [6]) and in the test on neutrophils [3] (setting [8]) were 1.6 10^3 cells/μl and 0.7 10^3 cells/μl, respectively.
Regarding `N#Cc1nc(C(=O)NCC(=O)O)c(O)c2ccn(Cc3ccccc3F)c12` [Compound I, {[7-Cyano-1-(2-fluoro-benzyl)-4-hydroxy-1H-pyrrolo[2,3-c]pyridine-5-carbonyl]-amino}-acetic acid], the change in vivo at 100 mg/kg was found to be 127% in the test with lymphocytes (setting [5]), 425% in the test on monocytes (setting [10]), 17% with neutrophils [2] and 95% in test [4]. The Lymphocytes in the test with lymphocytes (setting [6]) is on record as 12.1 10^3 cells/μl. In addition, the “Total WBC” value in test [1] (setting [6]) is recorded as 13.1 10^3 cells/μl. For the same compound, the Monocytes with monocytes (setting [6]) is recorded as 0.2 10^3 cells/μl. In the test with neutrophils [3] (setting [6]), the Neutrophils was 0.8 10^3 cells/μl.
As for `Cc1cc(Cl)cc(C)c1Oc1ccc2c(C#N)nc(C(=O)NCC(=O)O)c(O)c2c1` [Compound J, {[6-(4-Chloro-2,6-dimethyl-phenoxy)-1-cyano-4-hydroxy-isoquinoline-3-carbonyl]-amino}-acetic acid], the change in vivo at 100 mg/kg in the test on lymphocytes (setting [5]) was determined as 236%; with monocytes (setting [10]), 300%; with neutrophils [2], 8%; in test [4] it was 208%. In the test with lymphocytes (setting [6]), the Lymphocytes was 21.7 10^3 cells/μl. Also, the “Total WBC” value in test [1] (setting [6]) is 23.0 10^3 cells/μl. In addition, the Monocytes in the test on monocytes (setting [6]) is reported as 0.3 10^3 cells/μl. Further, the Neutrophils in the test with neutrophils [3] (setting [6]) is listed as 0.9 10^3 cells/μl.
Turning to `N#Cc1nc(C(=O)NCC(=O)O)c(O)c2c(Oc3ccc(Cl)cc3)cccc12` [Compound K, {[5-(4-Chloro-phenoxy)-1-cyano-4-hydroxy-isoquinoline-3-carbonyl]-amino}-acetic acid], the change in vivo at 200 mg/kg with lymphocytes (setting [7]) amounted to 562%; in the test with monocytes (setting [9]) it was 233%; in the test on neutrophils [2] it was 34%; in test [4], 491%. In the test with lymphocytes (setting [8]), the Lymphocytes was 31.8 10^3 cells/μl. In addition, in test [1] (setting [8]), the “Total WBC” value is given as 33.0 10^3 cells/μl. Besides, the Monocytes with monocytes (setting [8]) is on record as 0.4 10^3 cells/μl. Also, the Neutrophils with neutrophils [3] (setting [8]) is 0.8 10^3 cells/μl.
In the case of `C[C@H](c1ccccc1)n1c(Cl)c(Cl)c2c(O)c(C(=O)NCC(=O)O)nc(C#N)c21` [Compound L, {[(R)-2,3-Dichloro-7-cyano-4-hydroxy-1-(1-phenyl-ethyl)-1H-pyrrolo[2,3-c]pyridine-5-carbonyl]-amino}-acetic acid], the values for the change in vivo at 100 mg/kg (in the test with lymphocytes (setting [5]); in the test on neutrophils [2]; in test [4]) were 262%, 469% and 281%, respectively. Moreover, in the test on lymphocytes (setting [6]), the Lymphocytes was 18.0 10^3 cells/μl. Besides, the “Total WBC” value in test [1] (setting [6]) was 22.8 10^3 cells/μl. Also, in the test with monocytes (setting [6]), the Monocytes is 0.0 10^3 cells/μl. Also, in the test with neutrophils [3] (setting [6]), the Neutrophils is 4.8 10^3 cells/μl.
Consider `COc1ccc(Oc2cccc3c(C#N)nc(C(=O)NCC(=O)O)c(O)c23)cc1` [Compound N, {[1-Cyano-4-hydroxy-5-(4-methoxy-phenoxy)-isoquinoline-3-carbonyl]-amino}-acetic acid], for which the change in vivo at 200 mg/kg in the test on lymphocytes (setting [7]) was 138%; with monocytes (setting [9]), 157%; with neutrophils [2], 60%; in test [4] it was 125%. Besides, the Lymphocytes in the test with lymphocytes (setting [8]) is recorded as 10.7 10^3 cells/μl. Besides, in test [1] (setting [8]), the “Total WBC” value is listed as 12.0 10^3 cells/μl. The Monocytes in the test on monocytes (setting [8]) is listed as 0.2 10^3 cells/μl. Further, the Neutrophils in the test with neutrophils [3] (setting [8]) was 0.9 10^3 cells/μl.
For `N#Cc1nc(C(=O)NCC(=O)O)c(O)c2ccn(Cc3ccc(F)cc3)c12` [Compound O, {[7-Cyano-1-(4-fluoro-benzyl)-4-hydroxy-1H-pyrrolo[2,3-c]pyridine-5-carbonyl]-amino}-acetic acid], the change in vivo at 60 mg/kg in the test with lymphocytes (Mus musculus, Lymphocyte, 192 h, 60 mg/kg on day 1, day 3 and day 5, read-out: Lymphocytes % Increase Over Control) is 102%; in the test with monocytes (Mus musculus, Monocyte, 192 h, 60 mg/kg on day 1, day 3 and day 5, read-out: Monocytes % Increase Over Control), 140%; with neutrophils [2] (setting [11]) it was -3%; in test [4] (setting [11]) it was 86%. For the same compound, the Lymphocytes with lymphocytes (setting [11]) was 10.9 10^3 cells/μl. The “Total WBC” value in test [1] (setting [11]) is on record as 11.9 10^3 cells/μl. For the same compound, the Monocytes with monocytes (setting [11]) was 0.2 10^3 cells/μl. Besides, in the test with neutrophils [3] (setting [11]), the Neutrophils was 0.8 10^3 cells/μl.
`N#Cc1nc(C(=O)NCC(=O)O)c(O)c2c(Cl)cn(Cc3ccc(F)cc3)c12` [Compound P, {[3-Chloro-7-cyano-1-(4-fluoro-benzyl)-4-hydroxy-1H-pyrrolo[2,3-c]pyridine-5-carbonyl]-amino}-acetic acid]: the change in vivo at 100 mg/kg stood at 60% in the test with lymphocytes (setting [5]), 33% in the test on monocytes (setting [10]), 18% in the test with neutrophils [2] and 54% in test [4]. For the same compound, the Lymphocytes with lymphocytes (setting [6]) is listed as 9.1 10^3 cells/μl. For the same compound, the “Total WBC” value in test [1] (setting [6]) is given as 10.2 10^3 cells/μl. In addition, the Monocytes in the test with monocytes (setting [6]) is 0.1 10^3 cells/μl. In the test with neutrophils [3] (setting [6]), the Neutrophils was 0.8 10^3 cells/μl.
Turning to `N#Cc1nc(C(=O)NCC(=O)O)c(O)c2c(Cl)c(Cl)n(Cc3ccccc3)c12` [Compound Q, [(1-Benzyl-2,3-dichloro-7-cyano-4-hydroxy-1H-pyrrolo[2,3-c]pyridine-5-carbonyl)-amino]-acetic acid], the change in vivo at 200 mg/kg in the test with lymphocytes (setting [7]) was 522%; in the test on monocytes (setting [9]), 14%; with neutrophils [2] it was 233%; in test [4], 475%. In the test on lymphocytes (setting [8]), the Lymphocytes was 36.0 10^3 cells/μl. Besides, in test [1] (setting [8]), the “Total WBC” value is 38.7 10^3 cells/μl. Moreover, in the test with monocytes (setting [8]), the Monocytes is listed as 0.1 10^3 cells/μl. Also, in the test on neutrophils [3] (setting [8]), the Neutrophils was 2.5 10^3 cells/μl.
